Experimental data as given in patent publication US8153791B2, “Substituted pyrimidinyl oxime kinase inhibitors” (Janssen Pharmaceutica N.V., priority 2005, dated 2012).
Where two headings read alike, the source gives them in different places.

Tests used:
[1] = system: SK-OV-3 ovarian carcinoma; assay: In vitro cell proliferation inhibition, SK-OV-3; type: cell-based; details: Homo sapiens; SK-OV-3 cells, 14C-thymidine incorporation
Text: (§1) The ability of a test compound to inhibit unregulated in vitro cell proliferation may be determined by measuring incorporation of ^14C-labelled thymidine into newly synthesized DNA within cell lines derived from carcinomas originating from several tissues. Accordingly, the effect of a test compound on proliferation of cells with a variety of phenotypes may be determined.
(§2) Carcinoma cell lines used include the HeLa cervical adenocarcinoma from the American Type Culture Collection (ATCC Cat. #CCL2), SK-OV-3 ovarian carcinoma (ATCC Cat. #HTB-77), MCF-7 breast carcinoma (ATCC Cat. #HTB-22), BT474 breast carcinoma (ATCC Cat. #HTB-20), SKBR3 breast carcinoma (ATCC Cat. #HTB-30), A431 epidermoid carcinoma (ATCC Cat. #CRL-1555) and NCI-N87 gastric carcinoma (ATCC Cat. #CRL-5822).
(§3) The carcinoma cells are trypsinized and counted. The cells (3000-8000 count) are added to each well of a 96-well CytoStar tissue culture treated scintillating microplate (Amersham #RPNQ0160) in complete medium (100 μL) and the plate is then incubated in complete medium for 24 hrs at 37° C. in an inert atmosphere containing 5% CO2.
(§4) Test compound (1 μL) in 100% DMSO is added to the plate test-wells with DMSO only added to control-wells. The plate is incubated in complete medium for a second 24 hr period at 37° C. in an atmosphere containing 5% CO2.
(§5) An aliquot of a solution of Methyl ^14C-thymidine (56 mC/mmol) (NEN #NEC568 or Amersham #CFA532) and complete medium (20 μL to provide 0.2 μCi/well) is then added to each well and the plate is incubated for a third 24 hr period at 37° C. in an atmosphere containing 5% CO2.
(§6) The plate contents are then discarded, the plate is washed twice with PBS (200 μL) and then PBS (200 μL) is added to each well. The plate is sealed and the degree of methyl ^14C-thymidine incorporation is quantified on a Packard Top Count.
(§7) Cell proliferation of the Hela cell line was measured using the ATP-Lite method as described in the ATP Lite Kit (Perkin-Elmer Kit Number 6106941) or the C^14 method as described above. Cell proliferation of the other cell lines was measured using the C^14 method.
(§8) The term “NT” means that the compound indicated was not tested in a particular cell line. The lack of such testing is not intended to imply a belief that the compound is not otherwise active in a particular cell line or any other cell line not tested.

HER-2 = molecular target: T1, HER-2 (Homo sapiens, UniProt P04626); assay: HER-2 Kinase Assay; type: biochemical; details: read-out: HER2 IC50;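 further: HER2 kinase reaction read by scintillation counting, inhibition scaled between maximum and minimum signals set on each plate, IC50 from inhibition against log concentration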
T1 construct: purchased Proqinase (Freiburg, Germany)

[2] = system: A431 epidermoid carcinoma; assay: In vitro cell proliferation inhibition, A431; type: cell-based; details: Homo sapiens, A-431; A431 cells, 14C-thymidine incorporation; read-out: IC50 A431
Text: as §1, §2, §3, §4, §5, §6, §7, §8

SKBR3 breast carcinoma = assay: In vitro cell proliferation inhibition, SKBR3; type: cell-based; details: Homo sapiens, SK-BR-3; SKBR3 cells, 14C-thymidine incorporation; read-out: IC50 SKBR3
Text: as §1, §2, §3, §4, §5, §6, §7, §8

MCF-7 breast carcinoma = assay: In vitro cell proliferation inhibition, MCF-7; type: cell-based; details: Homo sapiens, MCF7; MCF-7 cells, 14C-thymidine incorporation
Text: as §1, §2, §3, §4, §5, §6, §7, §8

[3] = Blood-Brain Barrier Penetration (concentration in plasma and brain); type: in vivo, Sprague Dawley rats; details: male, Sprague Dawley, rat; for concentration at 60 min: male Sprague Dawley rats; for concentration at 120 min: 120 min (brain)
Experimental: The blood-brain barrier penetration of Compound 78 was examined in male Sprague Dawley rats following i.v. (3 mg/kg) or oral (10 mg/kg) administration.
The i.v. formulation consisted of a 1 mg/mL dose in vehicle (10% solutol in D5W at pH 3) with plasma samples drawn at 0.25 hours, 0.5 hours and 1 hour after administration.
The oral (p.o) formulation consisted of a 1 mg/mL dose in vehicle (0.5% methylcellulose) with plasma samples drawn at 0.5 hours, 1 hour and 2 hours after administration.
The plasma samples (0.5 ml) were collected and centrifuged (2000 rpm, 3 min), then stored at −60° C. until LC-MS/MS analysis. Brain samples were collected immediately after the last blood sample collection. The samples were rinsed with 0.9% NaCl, patted dry, then weighed and placed in Falcon 14 mL polypropylene round-bottom tubes containing 3 mL methanol. The methanolic mixtures were homogenized with an OMNI TH115 homogenizer then centrifuged for 10 minutes at 7,000 rpm. The supernatant was removed and stored frozen in 15 mL polyethylene tubes at −60° C. until LC-MS/MS analysis.

[4] = system: NCI-N87 gastric carcinoma; assay: In vitro cell proliferation inhibition, NCI-N87; type: cell-based; details: Homo sapiens, NCI-N87; N87 cells, 14C-thymidine incorporation; read-out: IC50 N87
Text: as §1, §2, §3, §4, §5, §6, §7, §8

BT474 breast carcinoma = assay: In vitro cell proliferation inhibition, BT474; type: cell-based; details: Homo sapiens, BT-474; BT474 cells, 14C-thymidine incorporation; read-out: IC50 BT474
Text: as §1, §2, §3, §4, §5, §6, §7, §8

EGFR = molecular target: T2, EGFR (Homo sapiens, UniProt P00533); assay: EGFR Kinase Assay; type: biochemical;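 further: recombinant GST-tagged EGFR expressed in Sf9 cells, phosphorylating biotinylated polyGluTyr with γ-33P ATP on Streptavidin Flashplates, 1 h at 30 °C, scintillation counting, inhibition relative to plate maximum and minimum signals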
T2 construct: The intracellular portion of EGFR started at nucleotide 2189 (corresponding to amino acid 667) and ended at the termination codon; made in house; host or cells: Sf9 insect cells (baculovirus)

[5] = system: HeLa cervical adenocarcinoma; assay: In vitro cell proliferation inhibition, HeLa; type: cell-based; details: Homo sapiens; HeLa cell line; ATP-Lite method or C14 thymidine method; read-out: HeLa IC50
Text: as §1, §2, §3, §4, §5, §6, §7, §8

T1 sequence (P04626 679-1255): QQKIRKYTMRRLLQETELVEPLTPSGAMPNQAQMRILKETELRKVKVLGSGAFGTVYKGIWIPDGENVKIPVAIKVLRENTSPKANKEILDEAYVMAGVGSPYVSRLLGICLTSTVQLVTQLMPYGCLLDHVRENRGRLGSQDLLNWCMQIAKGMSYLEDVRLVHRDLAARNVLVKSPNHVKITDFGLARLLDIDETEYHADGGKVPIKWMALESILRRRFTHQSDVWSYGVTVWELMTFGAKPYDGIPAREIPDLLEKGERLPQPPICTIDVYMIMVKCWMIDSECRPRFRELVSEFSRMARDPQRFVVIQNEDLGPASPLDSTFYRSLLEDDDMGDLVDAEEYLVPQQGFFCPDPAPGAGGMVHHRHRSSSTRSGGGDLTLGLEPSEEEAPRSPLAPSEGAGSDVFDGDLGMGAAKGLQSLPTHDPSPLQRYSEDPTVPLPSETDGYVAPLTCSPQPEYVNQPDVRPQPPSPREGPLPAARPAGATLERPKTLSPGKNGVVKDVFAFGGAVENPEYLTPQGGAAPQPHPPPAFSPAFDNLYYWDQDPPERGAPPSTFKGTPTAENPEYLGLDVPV
T2 sequence (P00533 669-1210 limits assumed): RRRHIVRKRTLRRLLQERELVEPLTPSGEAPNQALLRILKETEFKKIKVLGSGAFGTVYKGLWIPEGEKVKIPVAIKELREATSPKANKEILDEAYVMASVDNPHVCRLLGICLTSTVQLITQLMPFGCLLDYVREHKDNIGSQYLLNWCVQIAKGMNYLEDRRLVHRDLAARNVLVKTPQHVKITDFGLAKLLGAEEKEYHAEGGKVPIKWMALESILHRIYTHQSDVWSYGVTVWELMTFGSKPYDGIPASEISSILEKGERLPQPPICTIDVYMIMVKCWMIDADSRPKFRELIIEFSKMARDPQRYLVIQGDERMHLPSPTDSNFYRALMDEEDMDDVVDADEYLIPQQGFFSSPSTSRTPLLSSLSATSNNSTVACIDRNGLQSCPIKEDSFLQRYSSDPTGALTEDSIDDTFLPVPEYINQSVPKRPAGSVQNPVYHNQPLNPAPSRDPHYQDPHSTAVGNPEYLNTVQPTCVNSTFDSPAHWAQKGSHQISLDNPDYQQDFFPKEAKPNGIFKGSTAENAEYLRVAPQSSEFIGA

| IC50 [1] [nM] | IC50 (HER-2) [nM] | IC50 [2] [nM] | IC50 (SKBR3 breast carcinoma) [nM] | IC50 (MCF-7 breast carcinoma) [nM] | concentration at 60 min ([3]; brain, iv, 3 mg/kg, i.v. 3 mg/kg, 60 min (brain), read-out: Concentration in Brain, Mean ± SEM) [ng/g] | concentration at 120 min ([3]; brain, po, 10 mg/kg, p.o. 10 mg/kg, first of two lines so labelled, read-out: Concentration in Brain, Mean ± SEM) [ng/g] | concentration at 120 min ([3]; brain, po, 10 mg/kg, p.o. 10 mg/kg, second of two lines so labelled, read-out: Concentration in Brain, Mean ± SEM) [ng/g] | Kp at 1 h ([3]; brain/plasma, iv, i.v. 3 mg/kg, 60 min, read-out: Brain/Plasma Ratio) | Kp at 2 h ([3]; brain/plasma, po, p.o. 10 mg/kg, read-out: Brain/Plasma Ratio) | concentration at 60 min ([3]; plasma, iv, 3 mg/kg, i.v. 3 mg/kg, 60 min (plasma), read-out: Concentration in Plasma, Mean ± SEM) [ng/mL] | concentration at 60 min ([3]; plasma, po, 10 mg/kg, p.o. 10 mg/kg, 60 min (plasma), read-out: Concentration in Plasma, Mean ± SEM) [ng/mL] | IC50 [4] [nM] | IC50 (BT474 breast carcinoma) [nM] | IC50 (EGFR) [nM] | IC50 [5] [nM] | Compound |
| --- | --- | --- | --- | --- | --- | --- | --- | --- | --- | --- | --- | --- | --- | --- | --- | --- |
| 100000 | 60 | 800 | 200 | 100000 | 307 ± 55 | 46.1 ± 17.4 | 51.2 ± 13.7 | 2.5 | 1.2 | 124 ± 5.5 | 73.6 ± 16.4 | 200 | 60 | 20 | 19600 | Nc1ncnc(Nc2ccc(OCc3ccccc3)c(Cl)c2)c1/C=N/OCCN1CCOCC1 [Cpd 78] |
| 2400 | 200 | 100000 | 10000 | 1000 |  |  |  |  |  |  |  | 1100 | 10000 | 50 | 12100 | Nc1ncnc(Nc2ccc(OCc3ccccc3)c(Cl)c2)c1/C=N/OCCN1CCCCC1 [Cpd 95, (5E)-4-amino-6-(4-benzyloxy-3-chloro-phenylamino)-pyrimidine-5-carbaldehyde O-(2-piperidin-1-yl-ethyl)-oxime] |
| 15300 | 100 | 800 | 400 | 2100 |  |  |  |  |  |  |  | 200 | 200 | 60 | 14700 | Nc1ncnc(Nc2ccc3c(cnn3Cc3cccc(F)c3)c2)c1/C=N/OCCN1CCCCC1 [Cpd 96, (5E)-4-amino-6-[1-(3-fluoro-benzyl)-1H-indazol-5-ylamino]-pyrimidine-5-carbaldehyde O-(2-piperidin-1-yl-ethyl)-oxime] |
